The IC50 is the concentration that inhibits the measured activity by half. Read a low IC50 as inhibition by little substance.

Results on 26 molecules are retold here after US12187729B2, “Compounds having PDE9A inhibitory activity, and pharmaceutical uses thereof” (KOREA RESEARCH INSTITUTE OF CHEMICAL TECHNOLOGY, priority 2018, dated 2025).

Chain of PDE9A (O76083 whole entry): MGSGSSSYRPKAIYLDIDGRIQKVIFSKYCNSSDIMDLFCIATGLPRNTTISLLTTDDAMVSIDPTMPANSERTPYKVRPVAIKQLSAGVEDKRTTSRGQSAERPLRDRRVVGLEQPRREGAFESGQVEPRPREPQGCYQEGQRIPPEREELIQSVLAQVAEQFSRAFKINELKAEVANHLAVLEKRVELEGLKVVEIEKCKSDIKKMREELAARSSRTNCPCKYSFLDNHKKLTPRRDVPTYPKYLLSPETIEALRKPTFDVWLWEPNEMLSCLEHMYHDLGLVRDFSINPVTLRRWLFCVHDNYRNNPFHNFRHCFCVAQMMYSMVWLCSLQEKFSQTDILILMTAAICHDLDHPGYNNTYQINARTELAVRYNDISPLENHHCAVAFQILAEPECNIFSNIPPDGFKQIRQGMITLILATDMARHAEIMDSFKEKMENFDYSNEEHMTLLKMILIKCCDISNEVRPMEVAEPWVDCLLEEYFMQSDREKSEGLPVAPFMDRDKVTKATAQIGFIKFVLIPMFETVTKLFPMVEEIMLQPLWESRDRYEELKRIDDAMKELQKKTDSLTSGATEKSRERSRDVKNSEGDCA

This assay has as its target PDE9A (Homo sapiens (Human), UniProt O76083). Nature of the assay: PDE9A inhibitory activity, fluorescence polarization assay (IMAP-FP screening express kit). The format is biochemical. The settings on record: enzyme PDE9A 5 ng/ml, Fl-cGMP substrate 100 nM, room temperature 1 hour. Here is the method: The inhibitory activity of the representative compounds according to the present invention against phosphodiesterase 9A was tested based on the polarization assay (IMAP-FP screening express kit) provided by MDS (MDS Analytical Technologies, Sunyvale, CA, USA). As a buffer solution, a reaction solution (a reaction solution containing 0.01% Tween 20 provided by MDS was diluted 5 times, then 5 mM DTT is added) and a polarization detection solution (binding solution A and B provided by MDS were mixed at a ratio of 3:1 and IMAP binding reagent 1/600 was added) were prepared. 100 μM of the substrate (Fl-cGMP substrate; MDS) and 3.6 μg/ml of the enzyme PDE9A (ab54113; abeam) were prepared. 3.6 μg/ml PDE9A and 100 μM substrate were diluted to 20 ng/ml (final reaction concentration: 5 ng/ml) and 400 nM (final reaction concentration: 100 nM), respectively. The buffer solution used for all dilution and preparation processes was 1× reaction solution with 1 mM DTT added, and the polarization detection solution was used to induce polarization at the end.
The prepared samples were dispensed on black microplates (Multiwell 384 well plates, #3573, Corning Life Sciences, Lowell, MA, USA) using a 16-channel pipette (multi 16-channel, Finnpipette, Thermo Scientific, Essex, UK). The total reaction volume per well is 20 μl. At this time, 10 μl of 2% DMSO, 5 μl of substrate solution, and 5 μl of reaction solution were used as a negative control, and 10 μl of 2% DMSO, 5 μl of substrate solution, and 5 μl of PDE9A solution were used as a positive control. As the experimental group, 10 μl of the compound prepared in Example, 5 μl of the substrate solution, and 5 μl of the PDE9A solution were used. After pretreatment between the compound and the enzyme was performed for about […] before the enzyme-substrate reaction, 5 μl of cGMP was added to induce the enzyme reaction. During the reaction, each compound, enzyme, and substrate occupied 50%, 25%, and 25% of the total volume, respectively, and they were prepared at high concentrations of 2, 4, and 4 times, respectively, immediately before addition. After the enzymatic reaction, it was shaken lightly for 1 minute and the enzyme reaction was induced at room temperature for 1 hour. Then, 60 μl of a polarization detection solution prepared in advance was added to induce polarization.
Nanoparticles composed of trivalent metal ions are mixed in the fluorescence detection solution, which combines with phosphoric acid expose by enzymatic reaction to increase the molecular weight and induce polarization. After leaving for 2 hours at room temperature, the polarization (Fluorescence Polarization, FP) value was measured using a multilabel counter (Envision, PerkinElmer, Turku, Finland) (emission wavelength: P-535 nm, S-535 nm, excitation wavelength: 480 nm), and the result was expressed as an IC50 value, which is the concentration of the compound that inhibited PDE9A by 50% in vitro (Table 2).
A general note: Fluorescence polarisation rises when a labelled molecule tumbles more slowly, as on binding a larger partner.
In turn, `CC(Sc1nc2c(cnn2C2CCOCC2)c(=O)[nH]1)C(=O)Nc1nnc(Br)s1` (centres unmarked) [Example 46, N-(5-bromo-1,3,4-thiadiazol-2-yl)-2-((4-oxo-1-(tetrahydro-2H-pyran-4-yl)-4,5-dihydro-1H-pyrazolo[3,4-d]pyrimidin-6-yl)thio)propanamide] had a 50% inhibitory concentration (IC50) of 0.2 nM. For `CC(Sc1nc2c(cnn2C2CCC(F)(F)CC2)c(=O)[nH]1)C(=O)Nc1nnc(Cl)s1` (centres unmarked) [Example 48, N-(5-chloro-1,3,4-thiadiazol-2-yl)-2-((1-(4,4-difluorocyclohexyl)-4-oxo-4,5-dihydro-1H-pyrazolo[3,4-d]pyrimidin-6-yl)thio)propanamide] the value was 0.3 nM; for `CCSc1nnc(NC(=O)CSc2nc3c(cnn3-c3ccc(F)cc3)c(=O)[nH]2)s1` [Example 16, N-(5-(ethylthio)-1,3,4-thiadiazol-2-yl)-2-((1-(4-fluorophenyl)-4-oxo-4,5-dihydro-1H-pyrazolo[3,4-d]pyrimidin-6-yl)thio)acetamide], 27 nM; for `CCSc1nnc(N(C)C(=O)CSc2nc3c(cnn3-c3ccccc3)c(=O)[nH]2)s1` [Example 18, N-(5-(ethylthio)-1,3,4-thiadiazol-2-yl)-N-methyl-2-((4-oxo-1-phenyl-4,5-dihydro-1H-pyrazolo[3,4-d]pyrimidin-6-yl)thio)acetamide], 470 nM. For `O=C(CSc1nc2c(cnn2C2CCOCC2)c(=O)[nH]1)Nc1nnc(Cl)s1` [Example 36, N-(5-chloro-1,3,4-thiadiazol-2-yl)-2-((4-oxo-1-(tetrahydro-2H-pyran-4-yl)-4,5-dihydro-1H-pyrazolo[3,4-d]pyrimidin-6-yl)thio)acetamide] the value was 0.7 nM; for `CC(Sc1nc2c(cnn2C2CCC(F)(F)CC2)c(=O)[nH]1)C(=O)Nc1nnc(Br)s1` (centres unmarked) [Example 31, 2-((1-(4,4-difluorocyclohexyl)-4-oxo-4,5-dihydro-1H-pyrazolo[3,4-d]pyrimidin-6-yl)thio)-N-(5-bromo-1,3,4-thiadiazol-2-yl)propanamide], 0.1 nM. The molecule `O=C(CSc1nc2c(cnn2C2CC2)c(=O)[nH]1)Nc1nnc(Br)s1` [Example 41, N-(5-bromo-1,3,4-thiadiazol-2-yl)-2-((1-cyclopropyl-4-oxo-4,5-dihydro-1H-pyrazolo[3,4-d]pyrimidin-6-yl)thio)acetamide] yielded an IC50 of 28 nM.

The molecule `Cc1nnc(NC(=O)CSc2nc3c(cnn3-c3ccccc3)c(=O)[nH]2)s1` [Example 3, N-(5-methyl-1,3,4-thiadiazol-2-yl)-2-((4-oxo-1-phenyl-4,5-dihydro-1H-pyrazolo[3,4-d]pyrimidin-6-yl)thio)acetamide] came in with an IC50 of 340 nM. For “N-(5-(methylthio)-1,3,4-thiadiazol-2-yl)-2-((4-oxo-1-phenyl-4,5-dihydro-1H-pyrazolo[3,4-d]pyrimidin-6-yl)thio)acetamide [Example 13]”, half-maximal inhibition (IC50) was put at 29 nM. With “N-(5-(isopropylthio)-1,3,4-thiadiazol-2-yl)-2-((4-oxo-1-phenyl-4,5-dihydro-1H-pyrazolo[3,4-d]pyrimidin-6-yl)thio)acetamide [Example 14]”, half-maximal inhibition (IC50) required 9 nM. For `CCSc1nnc(NC(=O)CSc2nc3c(cnn3C3CCSCC3)c(=O)[nH]2)s1` [Example 29, N-(5-(ethylthio)-1,3,4-thiadiazol-2-yl)-2-((4-oxo-1-(tetrahydro-2H-thiopyran-4-yl)-4,5-dihydro-1H-pyrazolo[3,4-d]pyrimidin-6-yl)thio)acetamide] the value was 0.3 nM; for `O=C(CSc1nc2c(cnn2C2CCC(F)(F)CC2)c(=O)[nH]1)Nc1nnc(Br)s1` [Example 21, 2-((1-(4,4-difluorocyclohexyl)-4-oxo-4,5-dihydro-1H-pyrazolo[3,4-d]pyrimidin-6-yl)thio)-N-(5-bromo-1,3,4-thiadiazol-2-yl)acetamide], 0.4 nM; for `O=C(CSc1nc2c(cnn2C2CCCCC2)c(=O)[nH]1)Nc1nnc(Br)s1` [Example 35, N-(5-bromo-1,3,4-thiadiazol-2-yl)-2-((4-oxo-1-cyclohexyl-4,5-dihydro-1H-pyrazolo[3,4-d]pyrimidin-6-yl)thio)acetamide], 1 nM.

On to `Cc1ccc(CSc2nnc(NC(=O)CSc3nc4c(cnn4-c4ccccc4)c(=O)[nH]3)s2)cc1` [Example 9], for which it took 15 nM to reach half-maximal inhibition (IC50). For `CCc1nnc(NC(=O)CSc2nc3c(cnn3-c3ccccc3)c(=O)[nH]2)s1` [Example 5, N-(5-ethyl-1,3,4-thiadiazol-2-yl)-2-((4-oxo-1-phenyl-4,5-dihydro-1H-pyrazolo[3,4-d]pyrimidin-6-yl)thio)acetamide] the value was 180 nM; for `CC(Sc1nc2c(cnn2-c2ccccc2)c(=O)[nH]1)C(=O)Nc1nnc(Br)s1` (centres unmarked) [Example 12, N-(5-bromo-1,3,4-thiadiazol-2-yl)-2-((4-oxo-1-phenyl-4,5-dihydro-1H-pyrazolo[3,4-d]pyrimidin-6-yl)thio)propanamide], 7 nM. As for `CCSc1nnc(NC(=O)C(C)Sc2nc3c(cnn3C3CCOCC3)c(=O)[nH]2)s1` (centres unmarked) [Example 45, N-(5-(ethylthio)-1,3,4-thiadiazol-2-yl)-2-((4-oxo-1-(tetrahydro-2H-pyran-4-yl)-4,5-dihydro-1H-pyrazolo[3,4-d]pyrimidin-6-yl)thio)propanamide], the figure is 0.1 nM. For `O=C(CSc1nc2c(cnn2-c2ccccc2)c(=O)[nH]1)Nc1nnc(Br)s1` [Example 7, N-(5-bromo-1,3,4-thiadiazol-2-yl)-2-((4-oxo-1-phenyl-4,5-dihydro-1H-pyrazolo[3,4-d]pyrimidin-6-yl)thio)acetamide] the value was 12 nM; for `O=C(CSc1nc2c(cnn2-c2ccccc2)c(=O)[nH]1)Nc1nnc(-c2ccc(F)cc2)s1` [Example 23, N-(5-(4-fluorophenyl)-1,3,4-thiadiazol-2-yl)-2-((4-oxo-1-phenyl-4,5-dihydro-1H-pyrazolo[3,4-d]pyrimidin-6-yl)thio)acetamide], 10 nM. As to `O=C(CSc1nc2c(cnn2C2CCSCC2)c(=O)[nH]1)Nc1nnc(Br)s1` [Example 32, N-(5-bromo-1,3,4-thiadiazol-2-yl)-2-((4-oxo-1-(tetrahydro-2H-thiopyran-4-yl)-4,5-dihydro-1H-pyrazolo[3,4-d]pyrimidin-6-yl)thio)acetamide], 0.6 nM corresponded to half-maximal inhibition (IC50). `CCSc1nnc(NC(=O)CSc2nc3c(cnn3-c3ccccc3)c(=O)[nH]2)s1` [Example 2, N-(5-(ethylthio)-1,3,4-thiadiazol-2-yl)-2-((4-oxo-1-phenyl-4,5-dihydro-1H-pyrazolo[3,4-d]pyrimidin-6-yl)thio)acetamide] had an IC50 of 10 nM. The molecule `Cc1ccc(-c2nnc(NC(=O)C(C)Sc3nc4c(cnn4-c4ccccc4)c(=O)[nH]3)s2)cc1` (centres unmarked) [Example 20, 2-((4-oxo-1-phenyl-4,5-dihydro-1H-pyrazolo[3,4-d]pyrimidin-6-yl)thio)-N-(5-(p-tolyl)-1,3,4-thiadiazol-2-yl)propanamide] had an IC50 of 19 nM. As for `O=C(CSc1nc2c(cnn2C2CCCCC2)c(=O)[nH]1)Nc1nnc(Cl)s1` [Example 42, N-(5-chloro-1,3,4-thiadiazol-2-yl)-2-((4-oxo-1-cyclohexyl-4,5-dihydro-1H-pyrazolo[3,4-d]pyrimidin-6-yl)thio)acetamide], the figure is 1 nM; as for `CC(C)n1ncc2c(=O)[nH]c(SCC(=O)Nc3nnc(Br)s3)nc21` [Example 38, N-(5-bromo-1,3,4-thiadiazol-2-yl)-2-((1-isopropyl-4-oxo-4,5-dihydro-1H-pyrazolo[3,4-d]pyrimidin-6-yl)thio)acetamide], 3 nM; as for `Cc1nnc(NC(=O)C(C)Sc2nc3c(cnn3-c3ccccc3)c(=O)[nH]2)s1` (centres unmarked) [Example 10, N-(5-methyl-1,3,4-thiadiazol-2-yl)-2-((4-oxo-1-phenyl-4,5-dihydro-1H-pyrazolo[3,4-d]pyrimidin-6-yl)thio)propanamide], 150 nM.

`O=C(CSc1nc2c(cnn2-c2ccccc2)c(=O)[nH]1)Nc1nnc(-c2ccccc2)s1` [Example 25, N-(5-phenyl-1,3,4-thiadiazol-2-yl)-2-((4-oxo-1-phenyl-4,5-dihydro-1H-pyrazolo[3,4-d]pyrimidin-6-yl)thio)acetamide] yielded an IC50 of 12 nM.
